Data reported in patent US8278300B2, “Use for PDE5 inhibitors” (Nycomed GmbH, priority 2004, dated 2012).

Tests used:
[1] = system: cerebral blood flow within the posterior cerebral artery; test: Transcranial Doppler of visually stimulated cerebral blood flow in pulmonary hypertension patients; format: in vivo, human; details: for cerebral microvascular reactivity: patients with chronic pulmonary hypertension
Text: It has been shown—contrary to the skilled person's expectation, that the vasodilating effect achieved with a PDE5 inhibitor extends to the improvement of the kinetics in blood flow changes upon stimulation of the cortex by utilizing a visual stimulation paradigm. This could be shown by using the doppler-ultrasound technology which can measure the heart-beat dependent pulsatile blood flow within the basale cerebral vasculature with very high resolution. With a standard visual stimulation the Doppler is able by insonate the posterior cerebral artery to measure the activity-dependent blood-flow-regulation. [Rosengarten et al. (2001) Neurovascular coupling in terms of a control system: validation of a second-order linear system model. Ultrasound Med. Biol. 27: 631-5; Babikian et al. (2000) Transcranial Doppler ultrasonography: year 2000 update. J Neuroimaging 10: 101-115]
A pharmaceutical preparation comprising a PDE5 inhibitor can be used to treat patients with primary and secondary pulmonary hypertension. […] The hemodynamics aspects of the cerebral blood flow modulation can be described by a mathematical model (see Rosengarten et al., Headache 2003; 43: 458-463). This cited model contains a parameter T which defines the initial fast responding properties of the blood flow upon visual stimulation and three parameters (K, ζ and ω) which define the delayed adjustment of the […] blood flow. T is called the hold-back-time or rate time, K is the gain (which means change in blood flow velocity upon visual stimulation),ζ the attenuation (which represents the dampening due to vessel wall attenuation) and ω the natural frequency (represents the oscillating properties in dynamic neurovascular coupling). Patients with primary and secondary pulmonary hypertension display a pulmonary disturbance between ventilation of the alveoli and their perfusion. Such a demand-dependent inadequate perfusion has also been shown for the vasculature near the muscles. In this invention it is shown that patients with pulmonary hypertension display an increase in the rate time (meaning T is larger) and an enhanced attenuation ζ of the cerebral blood flow within the posterior cerebral artery upon visual stimulation. Thus it is shown that the mentioned disturbed micro-perfusion observed in patients with pulmonary hypertension extents to that of the brain. […] In addition the pro-longed hold-back time (rate time) in the patients is shortened by treatment with the PDE5-inhibitor sildenafil. This measurements have been performed 1 h after sildenafil intake but all responses to oral sildenafil outlasted 120-150 min.
In contrast to sildenafil iloprost treatment (2,8 μg inhaled in 4 min) worsens the impaired rate time and attenuation in patients with pulmonary hypertension (FIG. 1).
FIG. 1. Assessment of cerebral flow characteristics. Values for rate time and attenuation are presented in this graph. Medians (filled circles) and 95% confidence intervals (bars) are given for healthy controls, and patients at baseline (untreated), after iloprost inhalation, and subsequent to oral sildenafil intake. Statistical differences were assessed by ANOVA (p-values indicate significant differences between groups). Fisher's post hoc test was calculated at a significance level of p<0.05;

[2] = system: stroke in rats; details: cited from earlier work
[3] = system: epicardial coronary arteries; details: patients with coronary artery disease; cited from earlier work
[4] = system: pulmonary circulation; test: Pulmonary haemodynamics in patients with chronic pulmonary hypertension; format: in vivo, human; details: inhaled iloprost, oral sildenafil
[5] = system: rats with LPS-induced sepsis; test: LPS-induced sepsis in anaesthetized rats: sensoric evoked potentials and evoked cerebral blood flow; format: in vivo, rat; details: 4½ h after inducing sepsis with LPS
Experimental: Modulation of the cerebral blood flow evoked by repetitive electrical stimulation of the sole of one foot of the rats is measured by Doppler ultrasound technology as well as the sensoric evoked neuronal potentials (SEPs) by EEG. Baseline measurements are performed before application of LPS to the rats to induce sepsis.

[6] = patients with pulmonary hypertension, iloprost 2,8 μg inhaled in 4 min

CCCc1nn(C)c2c(=O)[nH]c(-c3cc(S(=O)(=O)N4CCN(C)CC4)ccc3OCC)nc12 [sildenafil, 5-[2-ethoxy-5-(4-methylpiperazin-1-ylsulfonyl)phenyl]-1,6-dihydro-1-methyl-3-propylpyrazolo[4,3-d]pyrimidin-7-one]
cerebral microvascular reactivity [1]: significantly improved | duration of responses to oral sildenafil ([1]; patients with pulmonary hypertension, 50 mg oral): 120 to 150 min | hold-back time (rate time) T of cerebral blood flow upon visual stimulation ([1]; patients with pulmonary hypertension, sildenafil 50 mg, oral, 1 h after intake): shortened | attenuation parameter ζ of cerebral blood flow upon visual stimulation ([1]; patients with pulmonary hypertension, sildenafil 50 mg, oral, one hour before measurement): significantly reduced | functional recovery after stroke [2]: promotes functional recovery | neurogenesis after stroke [2]: induces neurogenesis | relaxation of epicardial coronary arteries [3]: relax epicardial coronary arteries | pulmonary arterial pressure [4]: significant reduction | pulmonary vascular resistance [4]: significant reduction | stimulus induced cerebral blood flow ([5]; Doppler ultrasound): greatly restores | amplitude of the SEP (sensoric evoked neuronal potentials) ([5]; electrical stimulation of one foot): greatly restores

CC#CCC(C)[C@H](O)/C=C/[C@@H]1[C@H]2C/C(=C/CCCC(=O)O)C[C@H]2C[C@H]1O (stereo partly shown) [iloprost]
cerebral microvascular reactivity [1]: gradually worsened | attenuation of cerebral blood flow upon visual stimulation [1, 6]: worsens | rate time of cerebral blood flow upon visual stimulation [1, 6]: worsens | pulmonary arterial pressure [4]: significant reduction | pulmonary vascular resistance [4]: significant reduction
